The source of these data is patent US20170246236A1, “METHODS AND COMPOSITIONS FOR ENHANCED DELIVERY OF COMPOUNDS” (Sanford Burnham Prebys Medical Discovery Institute, priority 2010, published 2017).

In one data set the test system is mitochondria in HUVEC. In words: Live cell imaging, co-localization with mitochondrial marker. The class given is cell-based, human. Here is the method:
(§1) Cell proliferation assay and imaging. The MTT [3-[4,5-dimethylthazol-2-yl]-2,5-diphenyl tetrazolium-bromide] assay (Molecular Probes, Eugene, Oreg.) was used to quantify cell proliferation. Cells were seeded in complete medium into 96-well plates (5×10^3 cells/well), and allowed to attach overnight at 37° C. in a humidified 5% CO2 atmosphere. The culture media was then removed and various concentrations of peptides or NWs were added. After 48, and 72 hours, 10 μL of the MTT reagent (5 mg/mL in PBS) was added to each well. The medium was removed from cells after 3 hours, and […] of DMSO:MEOH (1:1 v/v) were added to each well. The plates were read at a wavelength of 595 nm. For live cell imaging, cells seeded on glass-bottom plates (Willco, Amsterdam, Netherlands), and 24 hours later, the cells were washed and incubated with FAM-labeled peptides or NWs for 45 min at 37° C. The cells were then rinsed three times with PBS and incubated for an additional 15 min at 37° C. with […] MitoTracker Red (Molecular Probes, Eugene, Oreg.) followed by nuclear staining with Hoechst 33342 DNA dyes (Molecular Probe, Eugene, Oreg.) for 12 min. The cells were analyzed with Fluoview FV 500 confocal microscopy (Olympus America, Center Valley, Pa.).

Data set [1] relates to mitochondria in U87 cells. The description is as above. In kind it is cell-based, human. Here is the method:
as §1

A further data set deals with GBM tumors. In words: In vivo peptide homing. The settings on record: 200 μg Rd-labeled peptide i.v., 3 hours, 005 tumor mice. Details: species or system mouse. How it is done:
In vivo peptide homing. […] Rhodamine-labeled CGKRK (200 μg) was intravenously injected into the mice and allowed to circulate for 3 hours. The mice were perfused with PBS through the heart under anesthesia, and tissues were collected and processed for fluorescence analysis.

In data set [2] the test system is proteins from brain tumor extracts. Kind of data set: CGKRK-binding proteins in glioblastoma tumor extracts (affinity matrix). The following applies: mass spectrometry. The text has this:
Proteins from brain tumor extracts were bound to insolubilized (SulfoLink Resin; Pierce Biotechnology) CGKRK peptide. Proteins were eluted from the affinity matrix with either CGKRK peptide or with CREKA (SEQ ID NO:92) peptide (negative control). Silver-stained gels were used to show the proteins eluted with CGKRK and CREKA (SEQ ID NO:92). […] The bands in the CGKRK eluate were identified by mass spectrometry as the proteins listed.

In a further data set the test system is purified mitochondria. In words: Peptide/phage binding to purified mitochondria. On the set-up: species or system mouse. The following applies: increasing concentrations of unlabeled peptide. How it is done:
Isolation of mitochondria and peptide/phage binding. Mitochondria were isolated from livers of Balb/c mice using differential centrifugation with buffers from a Pierce mitochondrial isolation kit for tissue according to the manufacture's instruction (Pierce Biotechnology, Rockford, Ill.). To test the binding of the CGKRK peptide to mitochondria, purified mitochondria were pre-incubated with various concentrations of non-labeled CGKRK or control peptide (CREKA; SEQ ID NO:92) for 30 min 4° C. FAM-CGKRK was then added and incubated for an additional 1 hour. The binding of the FAM peptide was quantified by fluorescence. In phage binding assays, purified mitochondria were suspended in 10 ml DMEM supplemented with 1% BSA, and incubated with 5×10^8 plaque-forming units (pfu) of peptide-displaying phage, overnight at 4° C. The mitochondria were washed 3 times with DMEM/BSA, the phage were collected with lysogeny broth containing 1% NP-40, and quantified by plaque assay.

Residues, ends and D or L forms follow the SMILES beside them.

Regarding “D[KLAKLAK]2: α-helical amphipathic pro-apoptotic peptide, SEQ ID NO:3 (KLAKLAKKLAKLAK; D-amino acids; membrane perturbing molecule) [reference compound]”, the co-localization with mitochondria entry (in the data set with mitochondria in HUVEC; in data set [1]) was “did not” each time.
For `N=C(N)NCCC[C@H](NC(=O)[C@H](CCCCN)NC(=O)CNC(=O)[C@@H](N)CS)C(=O)N[C@@H](CCCCN)C(=O)O` [CGKRK, Cys-Gly-Lys-Arg-Lys] (H-CGKRK-OH), the “peptide in normal tissues” value is given as “not in normal tissues” in the data set on GBM tumors and “appeared in kidney but not in heart, pancreas, liver, lung, or spleen” with GBM tumors (listed as CGKRK peptide).
As to “CREKA: Unrelated control peptide, SEQ ID NO:92 (clot binding/homing peptide)”, the “proteins eluted from CGKRK affinity matrix” value in data set [2] is listed as “failed to elute any visible protein bands”. Also, the “inhibition of FAM-CGKRK binding to mitochondria by unlabeled peptide” value in the data set with purified mitochondria was “not”.
As for `CC(C)C[C@@H](NC(=O)[C@H](N)CCCCN)C(=O)N[C@H](C)C(=O)N[C@H](CCCCN)C(=O)N[C@H](CC(C)C)C(=O)N[C@H](C)C(=O)N[C@H](CCCCN)C(=O)N[C@H](CCCCN)C(=O)N[C@H](CC(C)C)C(=O)N[C@H](C)C(=O)N[C@H](CCCCN)C(=O)N[C@H](CC(C)C)C(=O)N[C@H](C)C(=O)N[C@H](CCCCN)C(=O)N[C@@H](CS)C(=O)NCC(=O)N[C@@H](CCCCN)C(=O)N[C@@H](CCCNC(=N)N)C(=O)N[C@@H](CCCCN)C(=O)O` [CGKRK-D[KLAKLAK]2 peptide], the co-localization with mitochondria entry (with mitochondria in HUVEC; in data set [1]) was “colocalized with mitochondria” throughout.
